Measurements: ChEMBL document CHEMBL5137043, “trans, trans-2-C-Aryl-3,4-dihydroxypyrrolidines as potent and selective β-glucosidase inhibitors: Pharmacological chaperones for Gaucher disease” (Eur J Med Chem, 2022)

Columns and labels:
[1] = molecular target: Lysosomal alpha-glucosidase (Rattus norvegicus) (UniProt Q6P7A9); assay: Inhibition of rat small intestinal maltase assessed as reduction of D-glucose release using maltose as substrate at 1000 uM by colorimetric analysis; type: tissue-based; settings: Small intestine
Penicillium decumbens = assay: Inhibition of Penicillium decumbens alpha-L-rhamnosidase assessed as reduction of p-nitrophenol release using p-nitrophenyl-glycoside as substrate at 1000 uM by spectrophotometric analysis
[2] = Inhibition of almond beta-glucosidase assessed as reduction of p-nitrophenol release using p-nitrophenyl-glycoside as substrate by spectrophotometric analysis; parameters: species or system Prunus dulcis
[3] = molecular target: T1, Alpha-mannosidase (Canavalia ensiformis) (UniProt C0HJB3); assay: Inhibition of jack bean alpha-mannosidase assessed as reduction of p-nitrophenol release using p-nitrophenyl-glycoside as substrate at 1000 uM by spectrophotometric analysis
T1 sequence (whole entry): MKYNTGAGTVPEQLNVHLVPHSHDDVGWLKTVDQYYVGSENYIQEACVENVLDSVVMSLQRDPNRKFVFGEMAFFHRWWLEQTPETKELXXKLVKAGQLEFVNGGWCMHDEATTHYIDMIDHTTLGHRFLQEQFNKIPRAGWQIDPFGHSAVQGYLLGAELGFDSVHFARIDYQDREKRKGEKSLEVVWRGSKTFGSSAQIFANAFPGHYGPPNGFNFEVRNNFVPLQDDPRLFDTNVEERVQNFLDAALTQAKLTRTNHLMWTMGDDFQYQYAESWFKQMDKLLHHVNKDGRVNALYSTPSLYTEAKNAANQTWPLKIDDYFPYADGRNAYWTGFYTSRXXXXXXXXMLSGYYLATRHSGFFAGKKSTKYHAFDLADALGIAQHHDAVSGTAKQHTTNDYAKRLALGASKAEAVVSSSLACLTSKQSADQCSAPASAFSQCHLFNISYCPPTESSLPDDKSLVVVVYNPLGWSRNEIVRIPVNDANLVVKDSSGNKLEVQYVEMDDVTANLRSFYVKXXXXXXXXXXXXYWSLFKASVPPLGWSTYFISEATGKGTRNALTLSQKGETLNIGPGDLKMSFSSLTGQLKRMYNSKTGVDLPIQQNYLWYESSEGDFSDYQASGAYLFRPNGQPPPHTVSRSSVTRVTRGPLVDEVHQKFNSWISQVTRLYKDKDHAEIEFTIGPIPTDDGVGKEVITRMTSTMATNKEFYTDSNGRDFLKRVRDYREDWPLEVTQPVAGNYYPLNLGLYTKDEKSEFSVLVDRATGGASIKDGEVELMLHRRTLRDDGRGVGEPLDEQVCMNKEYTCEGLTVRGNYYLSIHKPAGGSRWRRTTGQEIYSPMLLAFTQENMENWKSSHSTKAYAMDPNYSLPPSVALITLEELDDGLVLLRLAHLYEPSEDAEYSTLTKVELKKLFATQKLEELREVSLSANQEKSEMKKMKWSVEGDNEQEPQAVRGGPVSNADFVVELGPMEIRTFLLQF

[4] = Inhibition of Escherichia coli beta-glucuronidase assessed as reduction of p-nitrophenol release using p-nitrophenyl-glycoside as substrate by spectrophotometric analysis
Bos taurus [5] = species on record: Bos taurus; assay: Inhibition of bovine liver beta-glucuronidase assessed as reduction of p-nitrophenol release using p-nitrophenyl-glycoside as substrate at 1000 uM by spectrophotometric analysis
[6] = Inhibition of bovine liver beta-galactosidase assessed as reduction of p-nitrophenol release using p-nitrophenyl-glycoside as substrate by spectrophotometric analysis; parameters: species or system Bos taurus
Helix pomatia = assay: Inhibition of snail beta-mannosidase assessed as reduction of p-nitrophenol release using p-nitrophenyl-glycoside as substrate at 1000 uM by spectrophotometric analysis
Sus scrofa = species on record: Sus scrofa; assay: Inhibition of porcine kidney alpha-trehalase assessed as reduction of p-nitrophenol release using p-nitrophenyl-glycoside as substrate at 1000 uM by spectrophotometric analysis; type: tissue-based
[7] = molecular target: Lysosomal alpha-glucosidase (Homo sapiens) (UniProt P10253); assay: Inhibition of human lysosomal alpha-glucosidase assessed as reduction of p-nitrophenol release using p-nitrophenyl-glycoside as substrate at 1000 uM by spectrophotometric analysis; settings: Lysosome
[8] = molecular target: Alpha-galactosidase (Coffea arabica) (UniProt Q42656); assay: Inhibition of coffee beans alpha-galactosidase assessed as reduction of p-nitrophenol release using p-nitrophenyl-glycoside as substrate at 1000 uM by spectrophotometric analysis
Saccharomyces cerevisiae = assay: Inhibition of yeast alpha-glucosidase assessed as reduction of p-nitrophenol release using p-nitrophenyl-glycoside as substrate at 1000 uM by spectrophotometric analysis
Aspergillus niger = assay: Inhibition of Aspergillus niger amyloglucosidase assessed as reduction of p-nitrophenol release using p-nitrophenyl-glycoside as substrate at 1000 uM by spectrophotometric analysis
[9] = Inhibition of human lysosomal beta-glucosidase assessed as reduction of p-nitrophenol release using p-nitrophenyl-glycoside as substrate by spectrophotometric analysis; type: subcellular, Lysosome
Bos taurus [10] = species on record: Bos taurus; assay: Inhibition of bovine liver beta-glucosidase assessed as reduction of p-nitrophenol release using p-nitrophenyl-glycoside as substrate at 1000 uM by spectrophotometric analysis
[11] = molecular target: T2, Tissue alpha-L-fucosidase (Bos taurus) (UniProt Q2KIM0); assay: Inhibition of bovine kidney alpha-L-fucosidase assessed as reduction of p-nitrophenol release using p-nitrophenyl-glycoside as substrate at 1000 uM by spectrophotometric analysis; type: tissue-based
T2 sequence (whole entry): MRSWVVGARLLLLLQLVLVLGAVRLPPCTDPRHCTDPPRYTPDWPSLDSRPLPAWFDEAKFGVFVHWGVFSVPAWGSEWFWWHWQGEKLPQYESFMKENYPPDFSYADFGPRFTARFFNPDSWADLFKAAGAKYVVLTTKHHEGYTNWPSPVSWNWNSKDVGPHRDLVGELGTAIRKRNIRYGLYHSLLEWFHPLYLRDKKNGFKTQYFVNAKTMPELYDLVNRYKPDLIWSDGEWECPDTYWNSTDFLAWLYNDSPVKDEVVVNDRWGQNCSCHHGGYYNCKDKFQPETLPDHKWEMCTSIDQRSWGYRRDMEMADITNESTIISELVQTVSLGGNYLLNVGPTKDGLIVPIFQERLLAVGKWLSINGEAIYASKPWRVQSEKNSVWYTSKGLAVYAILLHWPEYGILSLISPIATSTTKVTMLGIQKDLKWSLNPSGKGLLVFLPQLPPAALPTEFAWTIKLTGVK

[12] = molecular target: Sucrase-isomaltase, intestinal (Rattus norvegicus) (UniProt P23739); assay: Inhibition of rat small intestinal sucrase assessed as reduction of p-nitrophenol release using p-nitrophenyl-glycoside as substrate at 1000 uM by spectrophotometric analysis; type: tissue-based; settings: Small intestine
Oryza sativa = assay: Inhibition of rice alpha-glucosidase assessed as reduction of p-nitrophenol release using p-nitrophenyl-glycoside as substrate at 1000 uM by spectrophotometric analysis
[13] = Inhibition of bovine liver beta-glucosidase assessed as reduction of p-nitrophenol release using p-nitrophenyl-glycoside as substrate by spectrophotometric analysis; type: tissue-based, Bos taurus
[14] = molecular target: Sucrase-isomaltase, intestinal (Rattus norvegicus, UniProt P23739); assay: Inhibition of rat small intestinal sucrase assessed as reduction of p-nitrophenol release using p-nitrophenyl-glycoside as substrate by spectrophotometric analysis; type: tissue-based, Small intestine
Bos taurus [15] = species on record: Bos taurus; assay: Inhibition of bovine liver beta-galactosidase assessed as reduction of p-nitrophenol release using p-nitrophenyl-glycoside as substrate at 1000 uM by spectrophotometric analysis
Homo sapiens = species on record: Homo sapiens; assay: Inhibition of human lysosomal beta-glucosidase assessed as reduction of p-nitrophenol release using p-nitrophenyl-glycoside as substrate at 1000 uM by spectrophotometric analysis; type: subcellular; settings: Lysosome
Prunus dulcis = assay: Inhibition of almond beta-glucosidase assessed as reduction of p-nitrophenol release using p-nitrophenyl-glycoside as substrate at 1000 uM by spectrophotometric analysis
[16] = Inhibition of rice alpha-glucosidase assessed as reduction of p-nitrophenol release using p-nitrophenyl-glycoside as substrate by spectrophotometric analysis; parameters: species or system Oryza sativa
Escherichia coli = assay: Inhibition of Escherichia coli beta-glucuronidase assessed as reduction of p-nitrophenol release using p-nitrophenyl-glycoside as substrate at 1000 uM by spectrophotometric analysis
[17] = Inhibition of porcine kidney alpha-trehalase assessed as reduction of p-nitrophenol release using p-nitrophenyl-glycoside as substrate by spectrophotometric analysis; type: tissue-based, Sus scrofa
[18] = Inhibition of yeast alpha-glucosidase assessed as reduction of p-nitrophenol release using p-nitrophenyl-glycoside as substrate by spectrophotometric analysis; parameters: species or system Saccharomyces cerevisiae
[19] = Inhibition of Penicillium decumbens alpha-L-rhamnosidase assessed as reduction of p-nitrophenol release using p-nitrophenyl-glycoside as substrate by spectrophotometric analysis
[20] = molecular target: T3, Lysosomal acid glucosylceramidase (Homo sapiens, UniProt P04062); assay: Inhibition of human GCase assessed as reduction of 4-methylumbelliferone liberation using 4-methylumbelliferyl-beta-glucopyranoside as substrate preincubated with enzyme for 10 mins followed by substrate addition by fluorescence spectrophotometry
T3 sequence (P04062 whole entry): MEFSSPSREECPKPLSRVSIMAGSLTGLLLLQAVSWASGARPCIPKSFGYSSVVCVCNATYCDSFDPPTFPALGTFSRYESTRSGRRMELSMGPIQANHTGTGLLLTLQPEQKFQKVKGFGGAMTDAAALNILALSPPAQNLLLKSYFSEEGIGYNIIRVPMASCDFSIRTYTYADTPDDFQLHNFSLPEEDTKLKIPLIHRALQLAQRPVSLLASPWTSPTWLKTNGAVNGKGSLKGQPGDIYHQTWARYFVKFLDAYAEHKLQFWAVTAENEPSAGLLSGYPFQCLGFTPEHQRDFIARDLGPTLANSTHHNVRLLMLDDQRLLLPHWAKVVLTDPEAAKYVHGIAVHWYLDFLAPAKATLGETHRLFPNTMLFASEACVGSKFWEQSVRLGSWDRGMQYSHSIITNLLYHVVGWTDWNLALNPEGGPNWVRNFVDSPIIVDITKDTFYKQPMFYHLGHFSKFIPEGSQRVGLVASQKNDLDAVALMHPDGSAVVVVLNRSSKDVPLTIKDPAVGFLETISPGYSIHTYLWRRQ

[21] = Inhibition of Aspergillus niger amyloglucosidase assessed as reduction of p-nitrophenol release using p-nitrophenyl-glycoside as substrate by spectrophotometric analysis

Chain of Alpha-galactosidase (Coffea arabica) (Q42656 16-378 limits assumed): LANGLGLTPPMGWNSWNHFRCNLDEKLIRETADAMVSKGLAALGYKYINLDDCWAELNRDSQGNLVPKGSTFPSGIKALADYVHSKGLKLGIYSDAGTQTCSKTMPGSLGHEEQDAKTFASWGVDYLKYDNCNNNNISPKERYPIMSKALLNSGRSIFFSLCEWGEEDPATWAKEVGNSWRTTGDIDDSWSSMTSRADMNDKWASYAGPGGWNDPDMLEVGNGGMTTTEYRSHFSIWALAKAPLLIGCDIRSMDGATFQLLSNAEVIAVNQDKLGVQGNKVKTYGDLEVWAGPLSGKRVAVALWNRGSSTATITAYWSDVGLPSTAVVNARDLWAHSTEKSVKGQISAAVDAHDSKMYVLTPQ
Chain of Lysosomal alpha-glucosidase (Rattus norvegicus) (Q6P7A9 whole entry): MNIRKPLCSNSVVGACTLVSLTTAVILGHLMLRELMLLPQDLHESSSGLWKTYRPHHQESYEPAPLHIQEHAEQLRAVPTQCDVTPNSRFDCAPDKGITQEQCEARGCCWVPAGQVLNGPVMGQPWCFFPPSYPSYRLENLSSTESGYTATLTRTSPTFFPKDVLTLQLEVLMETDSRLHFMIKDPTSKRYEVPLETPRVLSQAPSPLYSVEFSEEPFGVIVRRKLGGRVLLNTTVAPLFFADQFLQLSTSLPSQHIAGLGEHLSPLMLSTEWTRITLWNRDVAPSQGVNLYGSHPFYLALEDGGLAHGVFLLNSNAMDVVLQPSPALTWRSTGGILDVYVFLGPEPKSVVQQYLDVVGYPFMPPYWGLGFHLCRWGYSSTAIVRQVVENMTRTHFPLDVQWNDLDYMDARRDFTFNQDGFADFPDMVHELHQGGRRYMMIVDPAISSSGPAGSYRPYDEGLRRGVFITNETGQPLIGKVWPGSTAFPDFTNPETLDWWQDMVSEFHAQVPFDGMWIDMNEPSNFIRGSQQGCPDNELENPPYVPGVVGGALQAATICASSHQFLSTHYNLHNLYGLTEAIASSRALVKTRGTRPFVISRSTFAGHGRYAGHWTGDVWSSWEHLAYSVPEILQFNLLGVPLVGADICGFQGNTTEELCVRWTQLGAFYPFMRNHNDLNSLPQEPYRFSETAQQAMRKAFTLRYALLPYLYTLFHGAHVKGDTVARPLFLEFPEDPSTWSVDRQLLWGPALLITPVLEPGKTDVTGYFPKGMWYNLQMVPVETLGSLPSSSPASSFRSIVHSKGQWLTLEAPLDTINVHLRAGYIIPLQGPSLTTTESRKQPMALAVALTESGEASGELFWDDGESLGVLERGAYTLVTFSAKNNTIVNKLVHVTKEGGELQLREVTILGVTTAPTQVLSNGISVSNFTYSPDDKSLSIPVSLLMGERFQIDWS
Chain of Sucrase-isomaltase, intestinal (P23739 1-1013 limits assumed): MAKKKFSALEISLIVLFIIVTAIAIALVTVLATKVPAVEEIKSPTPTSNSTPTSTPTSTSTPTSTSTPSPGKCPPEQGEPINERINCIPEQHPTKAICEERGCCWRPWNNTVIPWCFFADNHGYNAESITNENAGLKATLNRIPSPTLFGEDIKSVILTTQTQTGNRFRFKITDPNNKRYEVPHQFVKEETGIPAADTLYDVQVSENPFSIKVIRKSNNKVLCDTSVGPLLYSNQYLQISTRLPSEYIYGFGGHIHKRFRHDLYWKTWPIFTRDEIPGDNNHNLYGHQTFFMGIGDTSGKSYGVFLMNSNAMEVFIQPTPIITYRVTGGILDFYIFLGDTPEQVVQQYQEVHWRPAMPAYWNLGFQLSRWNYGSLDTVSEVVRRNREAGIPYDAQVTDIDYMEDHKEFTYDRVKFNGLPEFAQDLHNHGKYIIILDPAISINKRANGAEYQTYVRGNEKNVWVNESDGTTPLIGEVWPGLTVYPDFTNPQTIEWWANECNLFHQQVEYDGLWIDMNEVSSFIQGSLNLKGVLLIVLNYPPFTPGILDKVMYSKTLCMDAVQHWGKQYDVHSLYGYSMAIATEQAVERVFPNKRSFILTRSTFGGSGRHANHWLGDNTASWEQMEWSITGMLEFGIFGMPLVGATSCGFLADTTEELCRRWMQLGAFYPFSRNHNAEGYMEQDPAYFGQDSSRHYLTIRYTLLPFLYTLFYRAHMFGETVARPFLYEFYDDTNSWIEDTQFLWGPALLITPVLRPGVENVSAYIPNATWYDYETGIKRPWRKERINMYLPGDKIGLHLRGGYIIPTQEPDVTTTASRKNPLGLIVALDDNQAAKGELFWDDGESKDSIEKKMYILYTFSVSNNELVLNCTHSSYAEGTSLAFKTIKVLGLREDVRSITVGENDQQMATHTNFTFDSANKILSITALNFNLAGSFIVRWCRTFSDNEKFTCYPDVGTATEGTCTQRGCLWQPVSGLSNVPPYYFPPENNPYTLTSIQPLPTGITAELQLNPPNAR
Chain of Sucrase-isomaltase, intestinal (P23739 1014-1841 limits assumed): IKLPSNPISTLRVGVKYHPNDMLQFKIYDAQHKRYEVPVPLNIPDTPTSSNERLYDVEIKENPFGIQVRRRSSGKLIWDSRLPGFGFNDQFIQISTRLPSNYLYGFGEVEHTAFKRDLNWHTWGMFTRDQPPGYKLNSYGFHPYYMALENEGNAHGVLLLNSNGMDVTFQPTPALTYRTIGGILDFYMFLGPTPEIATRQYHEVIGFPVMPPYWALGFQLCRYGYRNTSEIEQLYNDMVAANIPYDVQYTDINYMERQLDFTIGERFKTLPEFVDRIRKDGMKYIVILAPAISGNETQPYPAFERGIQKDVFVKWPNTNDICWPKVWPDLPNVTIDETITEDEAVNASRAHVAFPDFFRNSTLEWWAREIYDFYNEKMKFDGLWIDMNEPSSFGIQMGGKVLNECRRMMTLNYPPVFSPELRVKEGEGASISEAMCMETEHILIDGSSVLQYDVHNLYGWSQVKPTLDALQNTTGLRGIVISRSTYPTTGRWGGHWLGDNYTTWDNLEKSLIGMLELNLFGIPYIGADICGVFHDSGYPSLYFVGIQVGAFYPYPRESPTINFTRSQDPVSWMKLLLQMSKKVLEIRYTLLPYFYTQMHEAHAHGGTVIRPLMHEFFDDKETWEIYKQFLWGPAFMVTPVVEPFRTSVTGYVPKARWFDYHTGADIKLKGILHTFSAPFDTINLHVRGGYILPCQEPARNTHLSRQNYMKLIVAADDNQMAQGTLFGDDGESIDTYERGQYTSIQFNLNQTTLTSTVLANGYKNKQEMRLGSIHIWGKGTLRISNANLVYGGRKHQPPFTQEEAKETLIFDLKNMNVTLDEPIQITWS
Chain of Sucrase-isomaltase, intestinal (Rattus norvegicus) (P23739 1-1013 limits assumed): as the sequence (P23739 1-1013 limits assumed) above
Chain of Sucrase-isomaltase, intestinal (Rattus norvegicus) (P23739 1014-1841 limits assumed): as the sequence (P23739 1014-1841 limits assumed) above

Compound	inhibition [1] [%]	inhibition (Penicillium decumbens) [%]	IC50 [2] [µM]	inhibition [3] [%]	inhibition (Bos taurus [5]) [%]	IC50 [6] [µM]	inhibition (Helix pomatia) [%]	inhibition (Sus scrofa) [%]	inhibition [7] [%]	inhibition [8] [%]	inhibition (Saccharomyces cerevisiae) [%]	inhibition (Aspergillus niger) [%]	IC50 [9] [µM]	inhibition (Bos taurus [10]) [%]	inhibition [11] [%]	inhibition (Oryza sativa) [%]	inhibition (Prunus dulcis) [%]	IC50 [16] [µM]	inhibition (Escherichia coli) [%]	other results
O[C@H]1[C@H](O)CN[C@@H]1c1ccc(-c2ccccc2)cc1	15.8	0	285	0	2.3	328	9.7	13.1	2.9	0	10.1	0	0.76	39.9	0	19	–	–	–	IC50 [4]: 281 µM; inhibition [12]: 47.4%
O[C@@H]1[C@@H](O)CN[C@H]1c1ccc(-c2ccccc2)cc1	28.8	6.4	234	0	4.2	83	14.9	1.6	15.6	0.3	4.7	0	1.2	–	0	10.3	–	–	–	IC50 [13]: 458 µM; IC50 [14]: 580 µM; IC50 [4]: 418 µM
OC[C@@H]1NCC(O)C1O (single isomer, unassigned)	–	1.3	–	0	6.3	–	0.5	–	–	3.9	–	25.6	–	4.6	13.3	–	32.6	1.9	8	inhibition (Bos taurus [15]): 8.3%; inhibition (Homo sapiens): 16.1%; IC50 [17]: 161 µM; IC50 [18]: 163 µM
O[C@H]1[C@H](CCCc2ccccc2)NC[C@@H]1O	–	–	–	11.5	0.3	665	5.2	0	27.8	0	30	0	9.5	35	0	42.9	48.8	–	42.7	IC50 [14]: 178 µM; IC50 [19]: 131 µM
CCCCN1C[C@H](CO)[C@@H](O)[C@H](O)C1	–	–	–	–	–	–	–	–	–	–	–	–	–	–	–	–	–	–	–	IC50 [20]: 44 µM
O[C@H]1[C@H](O)CN[C@@H]1c1ccccc1	12.4	0.5	–	8.3	15	441	10.1	6.1	29	8.6	0.3	2	11	43.7	0	–	3.9	466	20.3	inhibition [12]: 39.9%
OC[C@H]1NC[C@@H](O)[C@@H]1O	–	13.5	967	–	6.3	–	13	–	–	4.1	–	–	340	7.9	9	–	–	87	5.3	IC50 [21]: 355 µM; inhibition (Bos taurus [15]): 11.4%; IC50 [17]: 11 µM; IC50 [18]: 2.5 µM
